According to PubChem BioAssay AID1259345:
Calls of active or inactive are those of the source.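 Rule for the calls: active = IC50 below a set limit; inactive = the rest.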

Target: A2780 TERC promoter luciferase reporter, 16 h
Assay: TERC promoter activity modulators, SAR follow-up, cell-based, luciferase reporter, human (AID 1259345)

IC50	SMILES
inactive	Cc1nc2cc(-c3cccc(Br)c3)nn2c(C)c1CCC(=O)O
inactive	Cc1nc2cc(-c3ccc(C#CCO)cc3)nn2c(C)c1CCC(=O)O
